Experimental data taken from patent US8362000B2, “Azetidinyl diamides as monoacylglycerol lipase inhibitors” (Janssen Pharmaceutica NV, priority 2009, dated 2013).
Like-named read-outs stand apart in the source and are kept apart here.

Key:
mutant MGL = target: T1, mutant MGL (Homo sapiens, UniProt Q99685, L169S/L176S); test: MGL ThermoFluor assay - mutant; assay type: binding; details: read-out: MGL mutant ThermoFluor Kd
T1 sequence (Q99685 1-303 L169S/L176S): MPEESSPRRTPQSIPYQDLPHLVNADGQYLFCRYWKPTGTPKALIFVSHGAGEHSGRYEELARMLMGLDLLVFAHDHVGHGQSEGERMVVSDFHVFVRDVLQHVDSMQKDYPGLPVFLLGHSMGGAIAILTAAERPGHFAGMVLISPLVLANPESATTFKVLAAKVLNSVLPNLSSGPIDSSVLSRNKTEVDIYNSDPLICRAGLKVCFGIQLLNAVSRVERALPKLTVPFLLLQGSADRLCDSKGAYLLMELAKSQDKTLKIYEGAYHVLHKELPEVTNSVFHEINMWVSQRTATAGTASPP

MGL = target: T2, MGL (Rattus norvegicus, UniProt Q8R431); test: 2-AG accumulation assay in rat brain homogenate; assay type: biochemical; details: rat brain homogenate, 2-AG accumulation as percent of vehicle; for 2-AG accumulation, % of vehicle control at 1 µM: compound 1 μM, read-out: Rat Brain 2AG % VehCntrl (%) @ 1 μM
T2 construct: one g rat brain was homogenized using a Polytron homogenizer; from tissue; host or cells: rat brain homogenate
T2 sequence (Q8R431 1-303): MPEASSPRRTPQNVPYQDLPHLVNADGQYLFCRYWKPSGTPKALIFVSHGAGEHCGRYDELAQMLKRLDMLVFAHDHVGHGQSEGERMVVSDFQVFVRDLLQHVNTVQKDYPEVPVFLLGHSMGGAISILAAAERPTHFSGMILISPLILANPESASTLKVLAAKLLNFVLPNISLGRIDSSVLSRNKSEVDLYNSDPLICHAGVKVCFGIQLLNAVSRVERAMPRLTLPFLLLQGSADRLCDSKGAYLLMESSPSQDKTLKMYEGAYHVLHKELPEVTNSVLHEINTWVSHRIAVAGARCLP

[1] = ThermoFluor thermal stability binding assay

Compound	Kd (mutant MGL; ThermoFluor concentration-response) [nM]	2-AG accumulation, % of vehicle control at 1 µM (MGL) [%]	Kd (mutant MGL; [1]) [nM]	2-AG accumulation, % of vehicle control at 10 µM (MGL; compound 10 μM, read-out: Rat Brain 2AG % VehCntrl (%) @ 10 μM) [%]
O=C(c1ccc(-c2ccccc2)c(F)c1)N1CC(N2CCN(C(=O)c3cscn3)CC2)C1 [Cpd 170, 1-{1-[(2-Fluorobiphenyl-4-yl)carbonyl]azetidin-3-yl}-4-(1,3-thiazol-4-ylcarbonyl)piperazine]	60.6	205	–	–
[2H]c1c([2H])c([2H])c(C(=O)N2CCN(C3CN(C(=O)c4ccc(-c5cccc(C(F)(F)F)c5)cc4)C3)CC2)c([2H])c1[2H] [Cpd 186-A]	–	149	16	–
O=C(c1ccc(-c2ccc(F)cc2F)cc1)N1CC(N2CCN(C(=O)c3cscn3)CC2)C1 [Cpd 226, 1-{1-[(2′,4′-Difluorobiphenyl-4-yl)carbonyl]azetidin-3-yl}-4-(1,3-thiazol-4-ylcarbonyl)piperazine]	–	–	20	652
Cc1cc(C(=O)N2CC(N3CCN(C(=O)c4ccccc4)CC3)C2)ccc1-c1cccc(C(F)(F)F)c1 [Cpd 243, 1-(1-{[2-Methyl-3′-(trifluoromethyl)biphenyl-4-yl]carbonyl}azetidin-3-yl)-4-(phenylcarbonyl)piperazine]	–	120	16.7	–
Cc1cc(-c2ccc(F)c(Cl)c2)ccc1C(=O)N1CC(N2CCN(C(=O)c3ccccc3)CC2)C1 [Cpd 255, 1-{1-[(3′-Chloro-4′-fluoro-3-methylbiphenyl-4-yl)carbonyl]azetidin-3-yl}-4-(phenylcarbonyl)piperazine]	–	115	27	–
Cc1cc(C(=O)N2CC(N3CCN(C(=O)c4ccccc4)CC3)C2)ccc1-c1ccc(F)c(Cl)c1 [Cpd 259, 1-{1-[(3′-Chloro-4′-fluoro-2-methylbiphenyl-4-yl)carbonyl]azetidin-3-yl}-4-(phenylcarbonyl)piperazine]	–	156	7.7	–
Cc1cc(C(=O)N2CC(N3CCN(C(=O)c4ccccc4)CC3)C2)ccc1-c1ccc(Cl)c(C(F)(F)F)c1 [Cpd 260, 1-(1-{[4′-Chloro-2-methyl-3′-(trifluoromethyl)biphenyl-4-yl]carbonyl}azetidin-3-yl)-4-(phenylcarbonyl)piperazine]	–	140	20	–
COc1cc(C(=O)N2CC(N3CCN(C(=O)c4ccccc4)CC3)C2)ccc1-c1ccc(Cl)c(C(F)(F)F)c1 [Cpd 264, 1-(1-{[4′-Chloro-2-methoxy-3′-(trifluoromethyl)biphenyl-4-yl]carbonyl}azetidin-3-yl)-4-(phenylcarbonyl)piperazine]	–	172	10	–
O=C(c1ccccc1)N1CCN(C2CN(C(=O)c3ccc(-c4ccc(F)c(Cl)c4)cc3Cl)C2)CC1 [Cpd 267, 1-{1-[(3,3′-Dichloro-4′-fluorobiphenyl-4-yl)carbonyl]azetidin-3-yl}-4-(phenylcarbonyl)piperazine]	–	130	12.5	–
O=C(c1ccccc1)N1CCN(C2CN(C(=O)c3ccc(-c4ccc(Cl)c(C(F)(F)F)c4)cc3Cl)C2)CC1 [Cpd 268, 1-(1-{[3,4′-Dichloro-3′-(trifluoromethyl)biphenyl-4-yl]carbonyl}azetidin-3-yl)-4-(phenylcarbonyl)piperazine]	–	110	25	–
O=C(c1ccc(-c2ccccc2)cc1)N1CC(N2CCN(C(=O)c3ccns3)CC2)C1 [Cpd 310, 1-[1-(Biphenyl-4-ylcarbonyl)azetidin-3-yl]-4-(isothiazol-5-ylcarbonyl)piperazine]	–	141	250	–
O=C(c1cc[nH]c1)N1CCN(C2CN(C(=O)c3ccc(-c4ccccc4)cc3)C2)CC1 [Cpd 311, 1-[1-(Biphenyl-4-ylcarbonyl)azetidin-3-yl]-4-(1H-pyrrol-3-ylcarbonyl)piperazine]	–	125	80	–
O=C(c1ccc(-c2ccccc2)cc1)N1CC(N2CCN(C(=O)c3ccc(Cl)o3)CC2)C1 [Cpd 312, 1-[1-(Biphenyl-4-ylcarbonyl)azetidin-3-yl]-4-[(5-chlorofuran-2-yl)carbonyl]piperazine]	–	198	25	–
